{
  "source": "PubChem BioAssay AID2060495",
  "about": "(Molecular Pharmacology Branch, DTP, NCI, 2025);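 also: spheroids exposed to agents for one week before reading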;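 as to viability, T/C: 100% = DMSO vehicle control viability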",
  "tested_on": "521955-158-R2-J5-PDC complex spheroid viability",
  "assay": "Anticancer human tumor 521955-158-R2-J5-PDC patient-derived pancreatic carcinoma cell line growth inhibition [GQUAD]",
  "conditions": "for IC50: curve of first compound; for viability, T/C: stronger effect = lower value",
  "outline": "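Viability of tumor cells grown as complex spheroids with endothelial and stromal cells, exposed to drug combinations. Top concentration at or near clinical Cmax (else 10 microM), diluted in half-log increments.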",
  "key": {"[1]": {"conditions": "second compound 0.0316 µM, first compound 0.0316 µM"}, "[2]": {"conditions": "second compound 0.0316 µM, first compound 0.1 µM"}, "[3]": {"conditions": "second compound 0.0316 µM, first compound 0.316 µM"}, "[4]": {"conditions": "second compound 0.0316 µM, first compound 1 µM"}, "[5]": {"conditions": "second compound 0.0316 µM, first compound 3.16 µM"}, "[6]": {"conditions": "second compound 0.0316 µM, first compound 10 µM"}, "[7]": {"conditions": "second compound 0.1 µM, first compound 0.0316 µM"}, "[8]": {"conditions": "second compound 0.1 µM, first compound 0.1 µM"}, "[9]": {"conditions": "second compound 0.1 µM, first compound 0.316 µM"}, "[10]": {"conditions": "second compound 0.1 µM, first compound 1 µM"}, "[11]": {"conditions": "second compound 0.1 µM, first compound 3.16 µM"}, "[12]": {"conditions": "second compound 0.1 µM, first compound 10 µM"}, "[13]": {"conditions": "second compound 0.316 µM, first compound 0.0316 µM"}, "[14]": {"conditions": "second compound 0.316 µM, first compound 0.1 µM"}, "[15]": {"conditions": "second compound 0.316 µM, first compound 0.316 µM"}, "[16]": {"conditions": "second compound 0.316 µM, first compound 1 µM"}, "[17]": {"conditions": "second compound 0.316 µM, first compound 3.16 µM"}, "[18]": {"conditions": "second compound 0.316 µM, first compound 10 µM"}, "[19]": {"conditions": "second compound 1 µM, first compound 0.0316 µM"}, "[20]": {"conditions": "second compound 1 µM, first compound 0.1 µM"}, "[21]": {"conditions": "second compound 1 µM, first compound 0.316 µM"}, "[22]": {"conditions": "second compound 1 µM, first compound 1 µM"}, "[23]": {"conditions": "second compound 1 µM, first compound 3.16 µM"}, "[24]": {"conditions": "second compound 1 µM, first compound 10 µM"}, "[25]": {"conditions": "second compound 3.16 µM, first compound 0.0316 µM"}, "[26]": {"conditions": "second compound 3.16 µM, first compound 0.1 µM"}, "[27]": {"conditions": "second compound 3.16 µM, first compound 0.316 µM"}, "[28]": {"conditions": "second compound 3.16 µM, first compound 1 µM"}, "[29]": {"conditions": "second compound 3.16 µM, first compound 3.16 µM"}, "[30]": {"conditions": "second compound 3.16 µM, first compound 10 µM"}, "[31]": {"conditions": "second compound 10 µM, first compound 0.0316 µM"}, "[32]": {"conditions": "second compound 10 µM, first compound 0.1 µM"}, "[33]": {"conditions": "second compound 10 µM, first compound 0.316 µM"}, "[34]": {"conditions": "second compound 10 µM, first compound 1 µM"}, "[35]": {"conditions": "second compound 10 µM, first compound 3.16 µM"}, "[36]": {"conditions": "second compound 10 µM, first compound 10 µM"}},
  "data": [
    {"smiles": "O=C(NO)c1cnc(N2CCN(S(=O)(=O)c3ccc4ccccc4c3)CC2)nc1", "note": "+ Cc1[nH]c2ccc(F)cc2c1-c1nc2c3cccnc3c3ncccc3c2[nH]1", "values": [
      {"measurement": "IC50", "setting": "second compound 0.0316 µM", "value": 758, "unit": "nM"},
      {"measurement": "IC50", "setting": "second compound 0.1 µM", "value": 966, "unit": "nM"},
      {"measurement": "IC50", "setting": "second compound 0.316 µM", "value": 1430, "unit": "nM"},
      {"measurement": "IC50", "setting": "second compound 1 µM", "value": 1380, "unit": "nM"},
      {"measurement": "IC50", "setting": "second compound 3.16 µM", "value": 1490, "unit": "nM"},
      {"measurement": "IC50", "setting": "second compound 10 µM", "value": 1760, "unit": "nM"},
      {"measurement": "viability, T/C", "setting": "[1]", "value": 115, "unit": "%"},
      {"measurement": "viability, T/C", "setting": "[2]", "value": 124, "unit": "%"},
      {"measurement": "viability, T/C", "setting": "[3]", "value": 84.3, "unit": "%"},
      {"measurement": "viability, T/C", "setting": "[4]", "value": 41.8, "unit": "%"},
      {"measurement": "viability, T/C", "setting": "[5]", "value": 0.18, "unit": "%"},
      {"measurement": "viability, T/C", "setting": "[6]", "value": 0.17, "unit": "%"},
      {"measurement": "viability, T/C", "setting": "[7]", "value": 99.1, "unit": "%"},
      {"measurement": "viability, T/C", "setting": "[8]", "value": 142, "unit": "%"},
      {"measurement": "viability, T/C", "setting": "[9]", "value": 111, "unit": "%"},
      {"measurement": "viability, T/C", "setting": "[10]", "value": 48.5, "unit": "%"},
      {"measurement": "viability, T/C", "setting": "[11]", "value": 0.18, "unit": "%"},
      {"measurement": "viability, T/C", "setting": "[12]", "value": 0.23, "unit": "%"},
      {"measurement": "viability, T/C", "setting": "[13]", "value": 100, "unit": "%"},
      {"measurement": "viability, T/C", "setting": "[14]", "value": 137, "unit": "%"},
      {"measurement": "viability, T/C", "setting": "[15]", "value": 113, "unit": "%"},
      {"measurement": "viability, T/C", "setting": "[16]", "value": 72.3, "unit": "%"},
      {"measurement": "viability, T/C", "setting": "[17]", "value": 0.17, "unit": "%"},
      {"measurement": "viability, T/C", "setting": "[18]", "value": 0.17, "unit": "%"},
      {"measurement": "viability, T/C", "setting": "[19]", "value": 101, "unit": "%"},
      {"measurement": "viability, T/C", "setting": "[20]", "value": 132, "unit": "%"},
      {"measurement": "viability, T/C", "setting": "[21]", "value": 120, "unit": "%"},
      {"measurement": "viability, T/C", "setting": "[22]", "value": 69.3, "unit": "%"},
      {"measurement": "viability, T/C", "setting": "[23]", "value": 0.29, "unit": "%"},
      {"measurement": "viability, T/C", "setting": "[24]", "value": 0.13, "unit": "%"},
      {"measurement": "viability, T/C", "setting": "[25]", "value": 96.8, "unit": "%"},
      {"measurement": "viability, T/C", "setting": "[26]", "value": 123, "unit": "%"},
      {"measurement": "viability, T/C", "setting": "[27]", "value": 105, "unit": "%"},
      {"measurement": "viability, T/C", "setting": "[28]", "value": 75.9, "unit": "%"},
      {"measurement": "viability, T/C", "setting": "[29]", "value": 0.29, "unit": "%"},
      {"measurement": "viability, T/C", "setting": "[30]", "value": 0.48, "unit": "%"},
      {"measurement": "viability, T/C", "setting": "[31]", "value": 99.1, "unit": "%"},
      {"measurement": "viability, T/C", "setting": "[32]", "value": 106, "unit": "%"},
      {"measurement": "viability, T/C", "setting": "[33]", "value": 101, "unit": "%"},
      {"measurement": "viability, T/C", "setting": "[34]", "value": 97.8, "unit": "%"},
      {"measurement": "viability, T/C", "setting": "[35]", "value": 0.55, "unit": "%"},
      {"measurement": "viability, T/C", "setting": "[36]", "value": 0.36, "unit": "%"}
    ]},
    {"smiles": "O=c1[nH]cc(F)c(=O)[nH]1", "note": "+ Cc1[nH]c2ccc(F)cc2c1-c1nc2c3cccnc3c3ncccc3c2[nH]1", "values": [
      {"measurement": "IC50", "setting": "second compound 0.0316 µM", "value": 3720, "unit": "nM"},
      {"measurement": "IC50", "setting": "second compound 0.1 µM", "value": 4880, "unit": "nM"},
      {"measurement": "IC50", "setting": "second compound 0.316 µM", "value": 3090, "unit": "nM"},
      {"measurement": "IC50", "setting": "second compound 1 µM", "value": 2480, "unit": "nM"},
      {"measurement": "IC50", "setting": "second compound 3.16 µM", "value": 2530, "unit": "nM"},
      {"measurement": "IC50", "setting": "second compound 10 µM", "value": 2080, "unit": "nM"},
      {"measurement": "viability, T/C", "setting": "[1]", "value": 110, "unit": "%"},
      {"measurement": "viability, T/C", "setting": "[2]", "value": 84.6, "unit": "%"},
      {"measurement": "viability, T/C", "setting": "[3]", "value": 76, "unit": "%"},
      {"measurement": "viability, T/C", "setting": "[4]", "value": 96.7, "unit": "%"},
      {"measurement": "viability, T/C", "setting": "[5]", "value": 55, "unit": "%"},
      {"measurement": "viability, T/C", "setting": "[6]", "value": 19.6, "unit": "%"},
      {"measurement": "viability, T/C", "setting": "[7]", "value": 99.6, "unit": "%"},
      {"measurement": "viability, T/C", "setting": "[8]", "value": 97.1, "unit": "%"},
      {"measurement": "viability, T/C", "setting": "[9]", "value": 90.7, "unit": "%"},
      {"measurement": "viability, T/C", "setting": "[10]", "value": 89.6, "unit": "%"},
      {"measurement": "viability, T/C", "setting": "[11]", "value": 67, "unit": "%"},
      {"measurement": "viability, T/C", "setting": "[12]", "value": 21.1, "unit": "%"},
      {"measurement": "viability, T/C", "setting": "[13]", "value": 90.9, "unit": "%"},
      {"measurement": "viability, T/C", "setting": "[14]", "value": 94.3, "unit": "%"},
      {"measurement": "viability, T/C", "setting": "[15]", "value": 104, "unit": "%"},
      {"measurement": "viability, T/C", "setting": "[16]", "value": 97.8, "unit": "%"},
      {"measurement": "viability, T/C", "setting": "[17]", "value": 48.9, "unit": "%"},
      {"measurement": "viability, T/C", "setting": "[18]", "value": 16.2, "unit": "%"},
      {"measurement": "viability, T/C", "setting": "[19]", "value": 95.2, "unit": "%"},
      {"measurement": "viability, T/C", "setting": "[20]", "value": 114, "unit": "%"},
      {"measurement": "viability, T/C", "setting": "[21]", "value": 91.1, "unit": "%"},
      {"measurement": "viability, T/C", "setting": "[22]", "value": 91.4, "unit": "%"},
      {"measurement": "viability, T/C", "setting": "[23]", "value": 38.9, "unit": "%"},
      {"measurement": "viability, T/C", "setting": "[24]", "value": 22, "unit": "%"},
      {"measurement": "viability, T/C", "setting": "[25]", "value": 106, "unit": "%"},
      {"measurement": "viability, T/C", "setting": "[26]", "value": 97.2, "unit": "%"},
      {"measurement": "viability, T/C", "setting": "[27]", "value": 107, "unit": "%"},
      {"measurement": "viability, T/C", "setting": "[28]", "value": 104, "unit": "%"},
      {"measurement": "viability, T/C", "setting": "[29]", "value": 37.1, "unit": "%"},
      {"measurement": "viability, T/C", "setting": "[30]", "value": 18.2, "unit": "%"},
      {"measurement": "viability, T/C", "setting": "[31]", "value": 105, "unit": "%"},
      {"measurement": "viability, T/C", "setting": "[32]", "value": 104, "unit": "%"},
      {"measurement": "viability, T/C", "setting": "[33]", "value": 103, "unit": "%"},
      {"measurement": "viability, T/C", "setting": "[34]", "value": 88.5, "unit": "%"},
      {"measurement": "viability, T/C", "setting": "[35]", "value": 28, "unit": "%"},
      {"measurement": "viability, T/C", "setting": "[36]", "value": 19.3, "unit": "%"}
    ]}
  ]
}
